The numbers were not newly measured in paper PMC8780741, “Integration of In Silico, In Vitro and In Situ Tools for the Preformulation and Characterization of a Novel Cardio-Neuroprotective Compound during the Early Stages of Drug Development” (Pharmaceutics, 2022), which cites them from elsewhere.

Details of this series: method as in PMID 15832504. As to conditions: reference compound for the permeability cut-off; cited from earlier work.

With `COCCc1ccc(OCC(O)CNC(C)C)cc1` (stereo not shown) [Metoprolol], the logP was 1.72.
